Results: publication PMC9355146, “Novel angiotensin-converting enzyme inhibitory peptides from tuna byproducts—milts: Preparation, characterization, molecular docking study, and antioxidant function on H2O2-damaged human umbilical vein endothelial cells” (Frontiers in Nutrition, 2022)
Where two headings read alike, the source gives them in different places. Where a SMILES comes first, the peptide text is derived from it.

Columns and labels:
H2O2-damaged HUVECs [1] = format: cell-based, human
Procedure: The cytotoxic assay was carried out as per the previous method ([54]). […] Then, 20 μL MTT solution (5 mg/mL) was put in and incubated for 4 h. In the end, DMSO was joined in each well plate, and the absorbance (A) at 490 nm was determined. Cell viability(%)= (Asample/Acontrol) × 100. The cytoprotective assay was carried out using the described methods ([55], [56]). In short, HUVECs were cultured in a 96-well plate at a density of 1 × 10^4 cells/cm^2 for 24 h. […] GSH was used as the positive control.

H2O2-damaged HUVECs [2] = assay: MDA level in H2O2-damaged HUVECs; format: cell-based, human; conditions: then H2O2 400 μM for 24 h, mean ± SD, n = 3
Procedure: (§1) The cytoprotective assay was carried out using the described methods ([55], [56]). In short, HUVECs were cultured in a 96-well plate at a density of 1 × 10^4 cells/cm^2 for 24 h. Afterward, the supernatant was aspirated, and 20 μL of ACEi peptides (TP6, TP7, and TP10) with the final concentrations of 100 and 200 μM were added to the protection groups, respectively. […] GSH was used as the positive control.
(§2) The level of ROS was determined on the method described by Cai et al. ([55]) and expressed as % of blank control; the levels of MDA, SOD, and GSH-Px were measured using assay kits in accordance with the manufacturer' protocols and expressed as U/mg prot.

HUVECs [3] = assay: Nitric oxide (NO) production in HUVECs; format: cell-based, human; conditions: 24 h, mean ± SD, n = 3
Procedure: (§3) HUVECs were cultured in 96-well plates at a density of 1 × 10^4 cells/cm^2 and treated with Cap (1 μM), NE (0.5 μM), or ACEi peptides (100–200 μM) for 24 h, or incubated with both NE (0.5 μM) and 200 μM ACEi peptides for 24 h. NO and ET-1 contents of HUVECs were determined after 24 h according to the NO and ET-1 assay kits as manufactures' protocol ([54]).

HUVECs [4] = assay: Endothelin-1 (ET-1) secretion in HUVECs; format: cell-based, human; conditions: 24 h, mean ± SD, n = 3
Procedure: as §3

H2O2-damaged HUVECs [5] = assay: SOD level in H2O2-damaged HUVECs; format: cell-based, human; conditions: then H2O2 400 μM for 24 h, mean ± SD, n = 3
Procedure: as §1, §2

H2O2-damaged HUVECs [6] = assay: GSH-Px level in H2O2-damaged HUVECs; format: cell-based, human; conditions: then H2O2 400 μM for 24 h, mean ± SD, n = 3
Procedure: as §1, §2

HUVECs [7] = assay: Cytotoxic assay (MTT) on HUVECs; format: cell-based, human; conditions: 50–200 μM, 24 h
Procedure: The cytotoxic assay was carried out as per the previous method ([54]). HUVECs were cultured at a density of 1 × 10^4 cells/cm^2 to confluence in DMEM at 37°C in a humidified 5% CO2 atmosphere ([8]). The cytotoxicity of TP1–TP10 on HUVECs was measured using MTT assay ([8]). In short, HUVECs in 96-well plates at a density of 1 × 10^4 cells/cm^2 were separately treated with 20 μL samples at 50 and 200 μM, respectively, and cultured for 24 h. Then, 20 μL MTT solution (5 mg/mL) was put in and incubated for 4 h. In the end, DMSO was joined in each well plate, and the absorbance (A) at 490 nm was determined.
Cell viability(%)= (Asample/Acontrol) × 100.

ACE = ACE (Oryctolagus cuniculus, UniProt G1TYT4); conditions: cited from earlier work
[8] = target: T1, Angiotensin-converting enzyme (ACE) (UniProt P12822)
T1 sequence: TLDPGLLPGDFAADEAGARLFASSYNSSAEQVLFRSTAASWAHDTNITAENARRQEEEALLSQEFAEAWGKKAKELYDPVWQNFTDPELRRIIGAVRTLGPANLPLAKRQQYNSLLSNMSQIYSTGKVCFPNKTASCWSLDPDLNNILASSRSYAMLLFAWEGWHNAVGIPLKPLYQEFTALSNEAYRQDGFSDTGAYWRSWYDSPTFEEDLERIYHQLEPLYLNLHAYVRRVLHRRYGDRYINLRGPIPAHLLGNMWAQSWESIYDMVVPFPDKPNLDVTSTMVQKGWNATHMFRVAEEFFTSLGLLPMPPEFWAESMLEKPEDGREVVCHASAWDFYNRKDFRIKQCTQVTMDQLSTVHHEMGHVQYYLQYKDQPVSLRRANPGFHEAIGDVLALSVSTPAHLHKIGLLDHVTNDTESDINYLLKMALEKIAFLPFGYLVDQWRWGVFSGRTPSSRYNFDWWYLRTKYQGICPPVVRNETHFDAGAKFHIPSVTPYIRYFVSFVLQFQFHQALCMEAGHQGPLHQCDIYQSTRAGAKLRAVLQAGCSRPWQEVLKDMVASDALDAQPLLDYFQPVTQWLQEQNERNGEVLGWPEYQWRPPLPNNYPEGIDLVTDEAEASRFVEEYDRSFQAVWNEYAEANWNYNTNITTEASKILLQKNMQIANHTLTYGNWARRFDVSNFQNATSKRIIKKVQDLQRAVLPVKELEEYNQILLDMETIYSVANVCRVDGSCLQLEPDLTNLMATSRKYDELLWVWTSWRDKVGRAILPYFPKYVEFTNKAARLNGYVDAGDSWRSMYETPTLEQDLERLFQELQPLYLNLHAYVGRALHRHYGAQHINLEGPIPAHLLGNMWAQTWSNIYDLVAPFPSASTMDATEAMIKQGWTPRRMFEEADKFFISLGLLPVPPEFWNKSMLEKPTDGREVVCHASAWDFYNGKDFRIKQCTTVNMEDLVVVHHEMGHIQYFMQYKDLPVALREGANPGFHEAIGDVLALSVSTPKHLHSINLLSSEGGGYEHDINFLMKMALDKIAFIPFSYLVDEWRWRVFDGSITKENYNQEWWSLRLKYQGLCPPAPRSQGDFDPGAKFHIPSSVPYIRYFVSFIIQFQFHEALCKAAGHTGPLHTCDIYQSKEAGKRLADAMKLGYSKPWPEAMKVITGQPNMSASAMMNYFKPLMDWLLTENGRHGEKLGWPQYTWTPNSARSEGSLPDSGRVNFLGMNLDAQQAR

[9] = NE 0.5 μM together with peptide 200 μM

ACE, sequence (G1TYT4 1-1284): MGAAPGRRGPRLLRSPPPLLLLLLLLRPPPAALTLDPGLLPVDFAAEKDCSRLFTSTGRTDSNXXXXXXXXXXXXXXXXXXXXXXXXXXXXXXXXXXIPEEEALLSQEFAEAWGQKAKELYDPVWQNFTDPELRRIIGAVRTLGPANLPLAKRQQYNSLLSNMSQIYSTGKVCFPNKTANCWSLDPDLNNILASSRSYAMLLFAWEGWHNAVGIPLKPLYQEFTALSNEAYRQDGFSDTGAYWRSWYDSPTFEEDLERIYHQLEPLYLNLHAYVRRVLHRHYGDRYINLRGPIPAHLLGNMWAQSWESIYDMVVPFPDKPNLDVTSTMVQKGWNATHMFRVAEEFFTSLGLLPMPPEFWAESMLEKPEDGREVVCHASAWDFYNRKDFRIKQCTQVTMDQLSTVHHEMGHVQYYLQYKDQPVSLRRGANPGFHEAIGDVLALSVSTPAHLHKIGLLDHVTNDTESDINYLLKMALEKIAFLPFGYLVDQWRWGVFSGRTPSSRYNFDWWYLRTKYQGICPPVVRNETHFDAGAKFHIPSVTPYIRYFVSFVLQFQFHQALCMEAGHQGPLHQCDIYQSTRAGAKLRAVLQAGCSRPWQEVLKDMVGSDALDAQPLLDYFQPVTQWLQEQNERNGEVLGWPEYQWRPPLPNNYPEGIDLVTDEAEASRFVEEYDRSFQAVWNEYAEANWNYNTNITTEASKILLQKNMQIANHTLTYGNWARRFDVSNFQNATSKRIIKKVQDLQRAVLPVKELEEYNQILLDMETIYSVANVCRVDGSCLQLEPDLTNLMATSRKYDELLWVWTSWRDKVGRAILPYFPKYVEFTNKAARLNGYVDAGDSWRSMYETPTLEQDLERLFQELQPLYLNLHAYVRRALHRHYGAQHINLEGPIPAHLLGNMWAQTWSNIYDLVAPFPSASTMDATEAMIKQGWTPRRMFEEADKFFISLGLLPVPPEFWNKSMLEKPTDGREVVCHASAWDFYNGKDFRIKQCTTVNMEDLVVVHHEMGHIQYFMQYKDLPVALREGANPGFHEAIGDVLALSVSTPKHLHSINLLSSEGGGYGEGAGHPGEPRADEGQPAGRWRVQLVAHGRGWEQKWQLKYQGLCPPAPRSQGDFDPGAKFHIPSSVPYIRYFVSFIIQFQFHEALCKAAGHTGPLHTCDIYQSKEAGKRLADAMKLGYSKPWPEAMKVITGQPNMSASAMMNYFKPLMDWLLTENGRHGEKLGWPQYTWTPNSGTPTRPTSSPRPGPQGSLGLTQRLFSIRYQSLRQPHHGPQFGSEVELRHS

In the case of `N[C@@H](CCC(=O)N[C@@H](CS)C(=O)NCC(=O)O)C(=O)O` [GSH, glutathione, reference compound], the “cell viability of H2O2-damaged HUVECs” value (H2O2-damaged HUVECs [1]; GSH positive control (concentration not given), then H2O2 400 μM for 24 h, mean ± SD, n = 3) is reported as 75.69 ± 3.52% and the MDA level (H2O2-damaged HUVECs [2]; GSH positive control (concentration not given)) is reported as 15.28 ± 0.61 nmol/mg prot.

In the case of `OO` [H2O2], the “cell viability of HUVECs (% of the blank group)” value (H2O2-damaged HUVECs [1]; H2O2 400 μM alone, 24 h (oxidative damage model), mean ± SD, n = 3) is reported as 50.48 ± 1.96%.

For `NC[C@H](O)c1ccc(O)c(O)c1` [NE, Norepinephrine, reference compound], the NO level (HUVECs [3]; NE 0.5 μM alone) was 22.91 ± 1.26 μmol/gprot and the ET-1 secretion (HUVECs [4]; NE 0.5 μM alone) was 148.35 ± 3.87 pg/mL.

Molecule `CC[C@H](C)[C@H](N)C(=O)N[C@@H](CS)C(=O)N[C@@H](Cc1ccc(O)cc1)C(=O)O` [TP6, Ile-Cys-Tyr] (H-Ile-Cys-Tyr-OH) has an NO level (HUVECs [3]; [9]) of 42.21 ± 2.66 μmol/gprot, an NO level (HUVECs [3]; peptide 200 μM) of 50.63 ± 1.95 μmol/gprot and an ET-1 level (HUVECs [4]; [9]) of 105.18 ± 3.29 pg/mL. For the same molecule, the ET-1 level (HUVECs [4]; peptide 200 μM) was 92.57 ± 2.68 pg/mL, the “cell viability of H2O2-damaged HUVECs” value (H2O2-damaged HUVECs [1]; 8 h, 200 μM) was 69.76 ± 3.06% and the MDA level (H2O2-damaged HUVECs [2]; peptide 200 μM for 8 h) was 17.08 ± 0.96 nmol/mg prot. It also gave an SOD level (H2O2-damaged HUVECs [5]; peptide 100 μM for 8 h) of 168.77 ± 5.32 U/mg prot, an SOD level (H2O2-damaged HUVECs [5]; peptide 200 μM for 8 h) of 184.06 ± 7.19 U/mg prot and a GSH-Px level (H2O2-damaged HUVECs [6]; peptide 100 μM for 8 h) of 42.69 ± 1.32 U/mg prot. It also gave a GSH-Px level (H2O2-damaged HUVECs [6]; peptide 200 μM for 8 h) of 51.28 ± 3.16 U/mg prot.

For `CC(C)C[C@H](N)C(=O)N[C@@H](CO)C(=O)N[C@@H](Cc1ccccc1)C(=O)N[C@@H](CCCNC(=N)N)C(=O)O` [TP7, Leu-Ser-Phe-Arg] (H-LSFR-OH), the “toxicity to HUVECs (in words)” value (HUVECs [7]) was “no significant toxicity”, the NO level (HUVECs [3]; [9]) was 35.18 ± 1.2 μmol/gprot and the NO level (HUVECs [3]; peptide 200 μM) was 45.91 ± 1.68 μmol/gprot. For the same molecule, the ET-1 level (HUVECs [4]; [9]) was 110.36 ± 1.76 pg/mL, the ET-1 level (HUVECs [4]; peptide 200 μM) was 101.49 ± 2.05 pg/mL and the “cell viability of H2O2-damaged HUVECs” value (H2O2-damaged HUVECs [1]; 8 h, 200 μM) was 59.15 ± 2.81%. The MDA level (H2O2-damaged HUVECs [2]; peptide 200 μM for 8 h) was 20.68 ± 1.06 nmol/mg prot, the SOD level (H2O2-damaged HUVECs [5]; peptide 100 μM for 8 h) was 141.79 ± 3.96 U/mg prot and the SOD level (H2O2-damaged HUVECs [5]; peptide 200 μM for 8 h) was 158.79 ± 5.93 U/mg prot. The GSH-Px level (H2O2-damaged HUVECs [6]; peptide 100 μM for 8 h) was 35.61 ± 1.23 U/mg prot and the GSH-Px level (H2O2-damaged HUVECs [6]; peptide 200 μM for 8 h) was 40.93 ± 2.15 U/mg prot.

In the case of `CC[C@H](C)[C@H](N)C(=O)N[C@@H](Cc1ccc(O)cc1)C(=O)N[C@@H](CO)C(=O)N1CCC[C@H]1C(=O)O` [TP10, Ile-Tyr-Ser-Pro] (H-IYSP-OH), the “toxicity to HUVECs (in words)” value (HUVECs [7]) is reported as “no significant toxicity”, the NO level (HUVECs [3]; [9]) is reported as 39.27 ± 1.96 μmol/gprot and the NO level (HUVECs [3]; peptide 200 μM) is reported as 46.78 ± 2.47 μmol/gprot. The ET-1 level (HUVECs [4]; [9]) was 109.12 ± 2.95 pg/mL, the ET-1 level (HUVECs [4]; peptide 200 μM) was 96.15 ± 1.35 pg/mL and the “cell viability of H2O2-damaged HUVECs” value (H2O2-damaged HUVECs [1]; 8 h, 200 μM) was 61.58 ± 3.04%. It also gave an MDA level (H2O2-damaged HUVECs [2]; peptide 200 μM for 8 h) of 19.11 ± 0.88 nmol/mg prot, an SOD level (H2O2-damaged HUVECs [5]; peptide 100 μM for 8 h) of 154.35 ± 3.68 U/mg prot and an SOD level (H2O2-damaged HUVECs [5]; peptide 200 μM for 8 h) of 172.93 ± 6.58 U/mg prot. It also gave a GSH-Px level (H2O2-damaged HUVECs [6]; peptide 100 μM for 8 h) of 38.91 ± 1.17 U/mg prot and a GSH-Px level (H2O2-damaged HUVECs [6]; peptide 200 μM for 8 h) of 44.69 ± 2.09 U/mg prot.

For EHPVL, the “IC50 on ACE” value (ACE; ACEi peptide from stone fish) is listed as 1680 µg/mL.

For FRKE, the “IC50 on ACE” value (ACE; ACEi peptides from Antarctic krill) is given as 6970 µg/mL.

In the case of LGPLGHQ, the “IC50 on ACE” value (ACE; ACEi peptide from skate) is given as 4220 µg/mL.

In the case of MLVFAV, the “IC50 on ACE” value (ACE; ACEi peptide from Katsuwonus pelamis) is given as 2360 µg/mL.

For TP6, Ile-Cys-Tyr (ICY) (peptide), the ACEi activity (IC50): inhibition of ACE hydrolysis of FAPGG, absorbance at 340 nm, 37°C, pH 8.3 [8] was 0.48 mg/mL.

With IYSP [TP10, Ile-Tyr-Ser-Pro (IYSP)] the ACEi activity (IC50): inhibition of ACE hydrolysis of FAPGG, absorbance at 340 nm, 37°C, pH 8.3 [8] was 0.76 mg/mL.

In the case of LSFR [TP7, Leu-Ser-Phe-Arg (LSFR)], the ACEi activity (IC50): inhibition of ACE hydrolysis of FAPGG, absorbance at 340 nm, 37°C, pH 8.3 [8] is reported as 0.59 mg/mL.
